Results from PMC8769072, “Proteome‐scale mapping of binding sites in the unstructured regions of the human proteome” (Molecular Systems Biology, 2022).

Test system: immobilized GST-tagged bait protein domains
Test: ProP-PD phage selections (HD2 P8, sublibraries, HD2 P3, HD1 P8) with NGS and confidence level
Assay type: binding, human
Conditions: for HD2_nucleus confidence: library HD2 P8 nucleus
[1] = library HD2, bait EPS15_EH__P42566_121_215, whether the validated benchmark motif instance was recovered in the ProP-PD selection (TRUE/FALSE)
[2] = bait MAP1LC3A_ATG8 (Q9H492 2-121), HD2 library, benchmark motif instance recovered in the ProP-PD selection (TRUE/FALSE)
[3] = bait MAP1LC3B_ATG8 (Q9GZQ8 2-119), HD2 library, benchmark motif instance recovered in the ProP-PD selection (TRUE/FALSE)
[4] = HD2 library, bait TNKS_TANK-peptide-bind__O95271_174_649, known motif instance of the benchmarking set found (TRUE) or not found (FALSE) among selected peptides
[5] = bait KPNA4_Arm (O00629 68-487), HD2 library, benchmark motif instance recovered in the ProP-PD selection (TRUE/FALSE)
[6] = bait WDR5_WD_1234567_P61964_21_334
[7] = bait PABP-B_PABP__P11940_544_623, HD2 library, whether the validated benchmark motif instance was recovered in the ProP-PD selection (TRUE/FALSE)
[8] = library HD2, bait YAP1_WW_1_P46937_169_207, validated benchmark motif instance, in_library_check TRUE, TRUE/FALSE = instance recovered in ProP-PD selection
[9] = HD2 library, bait SUMO1_SUMO__P63165_1_101, known motif instance of the benchmarking set found (TRUE) or not found (FALSE) among selected peptides
[10] = HD2 library, bait TLN1_PTB__Q9Y490_309_401, known motif instance of the benchmarking set found (TRUE) or not found (FALSE) among selected peptides
[11] = bait CALM1_EF-hand__P0DP23_2_149, library HD2, benchmarking set of validated motif instances, TRUE = motif instance recovered in the ProP-PD selection

FPTDERSWVYSPLHYS
HD confidence (bait TLN1_PTB__Q9Y490_309_401, library HD): 3
p3_HD2 confidence (bait TLN1_PTB__Q9Y490_309_401, library HD2 P3): 2
p3_HD2 count proportions (bait TLN1_PTB__Q9Y490_309_401, library HD2 P3, mean normalised NGS counts): 0.001295
p3_HD2 mean counts (bait TLN1_PTB__Q9Y490_309_401, library HD2 P3, mean raw NGS counts, all selections): 12.2
HD2 confidence (bait TLN1_PTB__Q9Y490_309_401, library HD2 P8): 4
HD2_nc confidence (bait TLN1_PTB__Q9Y490_309_401, library HD2 P8 nucleocytoplasmic): 3
HD2_nc count proportions (bait TLN1_PTB__Q9Y490_309_401, library HD2 P8 nucleocytoplasmic, mean normalised NGS counts): 0.1307
HD2_nc mean counts (bait TLN1_PTB__Q9Y490_309_401, library HD2 P8 nucleocytoplasmic, mean raw NGS counts, all selections): 5802.8
HD count proportions (bait TLN1_PTB__Q9Y490_309_401, library HD, mean normalised NGS counts): 0.08207
HD mean counts (bait TLN1_PTB__Q9Y490_309_401, library HD, mean raw NGS counts, all selections): 2181

FPTGSSSTNPFL-------
motif_found [1]: FALSE

FRHRLWAVLTVQAYARGMIARRLHQRLRAEY [MYO7A 840-856]
motif_found (HD2 library, bait CALM1_EF-hand__P0DP23_2_149, benchmark motif instance, in_library_check FALSE, in_library_coverage 0): FALSE

FRPENEEDILVVTTQGEVE
motif_found [2]: FALSE
motif_found [3]: FALSE

GAQASVGSRSEGEGEAASADDG
motif_found [4]: FALSE

GCMKTCPLIDLEVDNGPAQ [GGA2]
motif_found (bait CLTC_Clathrin-propeller__Q00610_1_364, library HD2, benchmarking set of validated motif instances, TRUE = motif instance recovered in the ProP-PD selection): FALSE

GDSQGRKRRQTSMTDFYHSKRRLIFSKRKP-
motif_found [5]: FALSE

GEAWGHSSRTSPLDNV
HD2_nucleus confidence [6]: 4

GEYVRVKLQLNPAAREFKPDVKSKPVS
motif_found [7]: FALSE

GGFDTEPDEFSDFDRLRTALPTSG [EPN1]
motif_found (bait AP2B1_adaptin__P63010_700_937, library HD2, benchmarking set of validated motif instances, TRUE = motif instance recovered in the ProP-PD selection): FALSE

GGMNWADLLPPPPAHP
best_confidence (library HD2, bait VASP_EVH1__P50552_1_114, confidence level of best matching selected peptide (4 High, 2-3 Medium, 1 Low)): 3
best_specificity (library HD2, bait VASP_EVH1__P50552_1_114, specificity score of best matching selected peptide): 0.99
motif_found (library HD2, bait VASP_EVH1__P50552_1_114, validated benchmark motif instance, in_library_check TRUE, TRUE/FALSE = instance recovered in ProP-PD selection): TRUE

GHPESPPRKRLKSKGSDKDF
motif_found [5]: FALSE

GHSPPPAYTPMSGNQF
best_confidence (library HD2, bait YAP1_WW_1_P46937_169_207, confidence level of best matching selected peptide (4 High, 2-3 Medium, 1 Low)): 3
best_specificity (library HD2, bait YAP1_WW_1_P46937_169_207, specificity score of best matching selected peptide): 1
motif_found [8]: TRUE

GHSSRTSPLDNVGREL
HD2_nucleus confidence [6]: 4

GLAFGAFTNPFTAPAAQSP
motif_found [1]: FALSE

GMEHRGPPPEYPFKGMPP
motif_found (bait NEDD4_WW_4_P46934_890_928, HD2 library, whether the validated benchmark motif instance was recovered in the ProP-PD selection (TRUE/FALSE)): FALSE
motif_found [8]: FALSE

GNVIRWHNQETGEQIAIKQC
motif_found (library HD2, bait Keap1_KELCH__Q14145_321_609, whether the validated benchmark motif instance was recovered in the ProP-PD selection (TRUE/FALSE)): FALSE

GPLRPVLEYIDLVSSDDEEPSTSYTD
motif_found [9]: FALSE

GPPSLNYIPPVLQLSG
best_specificity (bait CEP55_EABR__Q53EZ4_160_217, library HD2, best matching peptide): 1
best_confidence (bait CEP55_EABR__Q53EZ4_160_217, library HD2, confidence level of best matching peptide (4 = High, 2 or 3 = Medium, 1 = Low)): 2

GPTPTEPPPPYSFRPE
HD2_cytoplasm confidence (bait NEDD4_WW_4_P46934_890_928, HD2 P8 cytoplasm sublibrary, confidence level (4 = High, 2-3 = Medium, 1 = Low)): 4

GQSLKVMPCLAPIAAKVGS
motif_found (library HD2, bait ZMYND11_coiled-coil-MYND__Q15326_480_602, validated benchmark motif instance, in_library_check TRUE, TRUE/FALSE = instance recovered in ProP-PD selection): FALSE

GRAQAEQWAAEFIQQQGTS
motif_found (bait PEX14_Pex14__O75381_16_84, HD2 library, whether the validated benchmark motif instance was recovered in the ProP-PD selection (TRUE/FALSE)): FALSE

GRDSPPSWRPQPDGEASQTEDV
motif_found [4]: FALSE

GSSGNTHDDFVMIDFKPAFS
motif_found [3]: FALSE

GTNPTLVSVPNPVFGSDTFCEP
motif_found [10]: FALSE

GYRQSPDGACSV,YRQSPDGACS,LRNSATGYRQSPDGACSVPSAR,YRQSPDGACSV [LNPEP 95-102]
motif_found (HD2 library, bait TNKS_TANK-peptide-bind__O95271_174_649, benchmark motif instance, in_library_check FALSE, in_library_coverage 0): FALSE

HDDFVMIDFKPAFSKD
motif_found [2]: TRUE
best_confidence (bait MAP1LC3A_ATG8 (Q9H492 2-121), HD2 library, confidence level (1-4) of best matching peptide): 3
best_specificity (bait MAP1LC3A_ATG8 (Q9H492 2-121), HD2 library, specificity score of best matching peptide): 1

HLNNDSSTTIIIDSSDETTESPTVGTAQ
motif_found [9]: FALSE

HPAPSWVAFAHTGAWG
HD2 confidence (bait AP2B1_adaptin__P63010_700_937, HD2 P8 selection, non primary paralogue peptide match, confidence level -4 to 4: 4 = High, 3 or 2 = Medium, 1 = Low, 0 = Filtered/Noise): 3

HTPRLPTLPKRVP,RRAFWHTPRLPTLPKRVPRAGEAR [CCDC8]
motif_found (bait ANKRA2_Ank__Q9H9E1_142_313, library HD2, benchmarking set of validated motif instances, TRUE = motif instance recovered in the ProP-PD selection): FALSE

IIYDRKFLMECRNSPV
best_specificity (library HD2, bait EIF4E_eIF4E__P06730_1_217, best matching peptide): 1
best_confidence (library HD2, bait EIF4E_eIF4E__P06730_1_217, confidence level of best matching peptide (4 High, 2-3 Medium, 1 Low)): 2
motif_found (library HD2, bait EIF4E_eIF4E__P06730_1_217, whether the validated benchmark motif instance was recovered in the ProP-PD selection (TRUE/FALSE)): TRUE

ILSKSNLNPDAKEFIP
best_confidence (bait PABP-B_PABP__P11940_544_623, HD2 library, confidence level (1-4) of best matching selected peptide): 2
best_specificity (bait PABP-B_PABP__P11940_544_623, HD2 library, specificity score of best matching selected peptide): 1
motif_found [7]: TRUE

IPDTPSPTVSVITISSDTDE
motif_found [9]: FALSE

IPSAPLYEEITYSGIS
best_specificity (HD2 library, bait TSG101_UEV__Q99816_1_145, best matching selected peptide): 1
best_confidence (HD2 library, bait TSG101_UEV__Q99816_1_145, confidence level of best matching selected peptide): 3
motif_found (HD2 library, bait TSG101_UEV__Q99816_1_145, known motif instance of the benchmarking set found (TRUE) or not found (FALSE) among selected peptides): TRUE

IQPDSPAPNPFSEEDEHPQ
motif_found [1]: FALSE

IREHVTGCARSEGFYTIDKKD
motif_found (library HD2, bait WDR5_WD_1234567_P61964_21_334, validated benchmark motif instance, in_library_check TRUE, TRUE/FALSE = instance recovered in ProP-PD selection): FALSE

IYKSAVTTVVNPKYEGK----- [ITGB1 789-796]
motif_found (HD2 library, bait TLN1_PTB__Q9Y490_309_401, benchmark motif instance, in_library_check FALSE, in_library_coverage 0): FALSE

KATVEKPSNPFSGDLQKTF
motif_found [1]: FALSE

KDKEEVQRKRQKLMPNFSDS,IKDKEEVQRKRQKLMPNFSD [NFKB1 361-365]
motif_found (HD2 library, bait KPNA4_Arm__O00629_68_487, benchmark motif instance, in_library_check FALSE, in_library_coverage 0): FALSE

KDLATVNSNPFDDPDAAEL
motif_found [1]: FALSE

KEPGGSRAHSSHLKSKKGQ
motif_found (library HD2, bait USP7_MATH-TRAF__Q93009_53_206, validated benchmark motif instance, in_library_check TRUE, TRUE/FALSE = instance recovered in ProP-PD selection): FALSE

KILRLSGKP
motif_found (bait MAD2L1_HORMA (Q13257 1-205), HD2 library, benchmark motif instance recovered in the ProP-PD selection (TRUE/FALSE)): FALSE

KISPPTPKPRPPRPLPVAPGS
motif_found (library HD2, bait YES1_SH3__P07947_90_152, validated benchmark motif instance, in_library_check TRUE, TRUE/FALSE = instance recovered in ProP-PD selection): FALSE

KKAFVHMPTLPNLDFHKTGDGL
motif_found (library HD2, bait ANKRA2_Ank__Q9H9E1_142_313, motif instance NOT in library (in_library_check FALSE, in_library_coverage 0)): FALSE

KKKATFRAITSTLASSFKRR [GRIN1]
motif_found [11]: FALSE

KKRFSFKKSFKLSGFSFK [MARCKS]
motif_found [11]: FALSE

KLSKLDVLLLATTYIA
HD2_nucleus confidence (bait SIN3A_PAH__Q96ST3_295_383): 4

KMNAKWDTGENPIYKSAVTTVV
motif_found [10]: FALSE

KNSSCDTDDFVLVPHNISSD
motif_found [2]: FALSE
motif_found [3]: FALSE
